Like-named read-outs stand apart in the source and are kept apart here.
Columns and labels:
[1] = system: Plasmodium falciparum W2 (chloroquine/pyrimethamine resistant); parameters: method as in Pesic et al. ([2012]); conditions: 72 h of incubation; ref Pesic et al. ([2012]); cited from earlier work
[2] = system: human erythrocytes; experiment: Accumulation and retention in human erythrocytes; type: in vitro ADME; conditions: after washout
Procedure: The human biological samples were sourced ethically, and their research use was in accord with the terms of the informed consents under an IRB/EC approved protocol. Human erythrocytes were isolated from fresh whole blood. Blood cells were removed from the plasma by centrifugation at 1,650 g and 4°C for 15 min. The pellet was re‐suspended in saline and centrifuged at 3,000 g and at room temperature for 10 min. Supernatant and the upper part of pellet containing leukocytes were discarded. The procedure was repeated three to four times until there were no traces of leukocytes. The quality of erythrocyte isolation was determined on Sysmex SF‐3000 haematological analyser. To measure compound accumulation in cells, erythrocytes (2 × 10^9) were re‐suspended in 3‐ml RPMI 1640 (Gibco, Invitrogen) medium containing 20 μM of tested compounds and incubated at 37°C for 3 or 24 h. Cells were subsequently washed twice in ice‐cold PBS (Sigma) followed by centrifugation at 3,000 g and 4°C for 10 min. The cells were lysed by freezing in 0.5% Triton X‐100 (Sigma) in deionized water. […] Concentrations in lysates were determined by LC–MS/MS. […] To determine intracellular concentration, measured concentration in lysates was normalized to the volume of erythrocyte pellet in samples.

[3] = system: Plasmodium falciparum 3D7A (sensitive); parameters: method as in Pesic et al. ([2012]); conditions: 72 h of incubation; ref Pesic et al. ([2012]); cited from earlier work
[4] = system: Polymorphonuclear leukocytes (PMN); experiment: Accumulation and retention in human primary cells, PMN; type: in vitro ADME; conditions: mean (SD)
Procedure: (§1) Accumulation and retention in human primary cells was determined as described in detail previously (Stepanic et al., [2011]). Briefly, normal human bronchial epithelial cells (NHBE, CC‐2541, Lonza), normal human lung fibroblasts (NHLF, CC‐2512, Lonza), and bronchial smooth muscle cells (BSMC, CC‐2576, Lonza) were cultivated according to the protocols of the suppliers. Human polymorphonuclear cells (PMN) and monocytes from healthy volunteers were isolated from buffy coats. Monocytes were isolated by negative selection on magnetic separator. Monocyte‐derived macrophages (MDM) were obtained by cultivating monocytes with 5 ng·ml^−1 rhGMCSF for 10 days. To determine compound accumulation cells were incubated with 3–10 μM of compounds in their corresponding culture medium for 3 h at 37°C in 5% CO2, washed, and lysed. To measure cellular retention of compounds, after being washed, drug‐loaded cells were incubated in fresh medium for 3 h, washed, and lysed. Compound concentrations were determined by HPLC–MS/MS analysis and expressed as % of azithromycin measurements.

[5] = system: Plasmodium falciparum 3D7A (sensitive); experiment: [3H]hypoxanthine incorporation antimalarial assay, strain 3D7A; type: cell-based; conditions: 72 h of incubation, N = 3
Procedure: (§2) The activity of the test compounds against P. falciparum in vitro was determined using the tritiated hypoxanthine incorporation assay of Desjardins et al. and additionally modified by Milhous and Chulay (Chulay, Haynes, & Diggs, [1983]; Milhous, Weatherly, Bowdre, & Desjardins, [1985]).
(§3) Compounds were dissolved in DMSO and subsequently diluted in the culture medium (RPMI 1640) supplemented with 10% v/v human plasma. Serial 1:2 drug dilutions were prepared in triplicate in microtitre plates. Culture medium supplemented with 10% v/v human plasma and type A Rhesus positive human erythrocytes infected with P. falciparum strains was added to yield a haematocrit of 3% and a parasitaemia of 0.25–0.55%. The plates were incubated at 37°C in a modular incubator flushed with a mixture of 5% oxygen, 3% carbon dioxide, and 92% nitrogen for 48 h, and then [^3H]hypoxanthine was added to give a final concentration of 12.5–16 μCi·ml^−1. After incubation for additional 24 h, particulate matter was harvested on fibreglass strips and hypoxanthine incorporation determined by scintillation spectrophotometry. […] Delayed death experiments were performed by this standard method but extending the incubation time with the drug up to 96 h.

[6] = system: bronchial smooth muscle cells (BSMC); experiment: Accumulation and retention in human primary cells, BSMC; type: in vitro ADME; conditions: mean (SD)
Procedure: as §1

[7] = system: normal human bronchial epithelium (NHBE); experiment: Accumulation and retention in human primary cells, NHBE; type: in vitro ADME; conditions: mean (SD)
Procedure: as §1

[8] = system: monocyte derived macrophages (MDM); experiment: Accumulation and retention in human primary cells, MDM; type: in vitro ADME; conditions: mean (SD)
Procedure: as §1

[9] = system: normal human lung fibroblasts (NHLF); experiment: Accumulation and retention in human primary cells, NHLF; type: in vitro ADME; conditions: mean (SD)
Procedure: as §1

[10] = system: Plasmodium falciparum W2 (chloroquine/pyrimethamine resistant); experiment: [3H]hypoxanthine incorporation antimalarial assay, strain W2; type: cell-based; conditions: W2, 72 h, read-out: Plasmodium falciparum IC50 W2
Procedure: as §2, §3

[11] = Pharmacokinetic studies in rats; type: in vivo, Sprague–Dawley rats; conditions: Rat; for half-life / clearance / Vd / bioavailability: male, Sprague-Dawley, whole blood; for half-life: intravenous; for clearance / Vd: iv; for clearance: blood; for Vd: read-out: Vss; for bioavailability: po
Procedure: For the in vivo pharmacokinetic study, compound 1 was dosed i.v. at 5 mg·kg^−1 (5 ml·kg^−1 dosing volume) and p.o. at a dose of 25 mg·kg^−1 (10 ml·kg^−1) to male Sprague–Dawley rats (Charles River, France), weighing ~350 g. Compounds 2 and 3 were dosed i.v. at 2 mg·kg^−1 (5 ml·kg^−1 dosing volume) and p.o. at a dose of 10 mg·kg^−1 (10 ml·kg^−1). Rats were fasted for 6–12 h (overnight fasting) prior oral administration. For serial blood sampling, rats (n = 3) dosed with an i.v. bolus of compound had blood collected at the following time points after dosing: 5, 10, 20 40, 60, 120, 240, 480, 1,440, and 1,800 min. Rats (n = 3) dosed orally had blood collected at the following time points after dosing: 15, 30, 60, 120, 240, 360, 480, 1,440, and 1,800 min.
Dosing solutions were prepared in 100% saline both for i.v. and p.o. After both routes of administration, blood samples were collected from the tail vein up to 30 h, haemolysed, and frozen until analysis. […] Subsequently, samples were assayed as described for mouse PK.

SMILES: CC[C@H]1OC(=O)[C@H](C)[C@@H](O[C@H]2C[C@@](C)(OC)[C@@H](O)[C@H](C)O2)[C@H](C)[C@@H](O[C@@H]2O[C@H](C)C[C@H](N(C)C)[C@H]2O)[C@](C)(O)C[C@@H](C)CN(C)[C@H](C)[C@@H](O)[C@]1(C)O [Azithromycin, reference compound]
- IC50 [1]: 2680 nM
- initially accumulated amount retained in the erythrocytes [2]: 10%
- IC50 [3]: 11500 nM

SMILES: CC[C@H]1OC(=O)[C@H](C)[C@@H](O[C@H]2C[C@@](C)(OC)[C@@H](O)[C@H](C)O2)[C@H](C)[C@@H](O[C@@H]2O[C@H](C)C[C@H](N(C)C)[C@H]2O)[C@](C)(O)C[C@@H](C)CN(CCCNc2ccnc3cc(Cl)ccc23)[C@H](C)[C@@H](O)[C@]1(C)O [Compound 1]
- accumulation ([4]; 3 h): 127 (36) % azithromycin
- retention ([4]; 3 h in fresh medium): 101 (19) % azithromycin
- IC50 [5]: 20 nM
- accumulation ([6]; 3 h): 148 (77) % azithromycin
- retention ([6]; 3 h in fresh medium): 118 (19) % azithromycin
- accumulation ([7]; 3 h): 162 (3) % azithromycin
- retention ([7]; 3 h in fresh medium): 123 (11) % azithromycin
- accumulation ([8]; 3 h): 118 (21) % azithromycin
- retention ([8]; 3 h in fresh medium): 94 (0) % azithromycin
- accumulation ([9]; 3 h): 100 (11) % azithromycin
- retention ([9]; 3 h in fresh medium): 85 (3) % azithromycin
- IC50 [10]: 27 nM
- DNAUCPO ([11]; p.o. 25 mg·kg^−1, mean (SD)): 169 (21) ng*h·ml^−1·mg^−1·kg^−1
- half-life ([11]; i.v. 5 mg·kg^−1 / p.o. 25 mg·kg^−1, mean (SD)): 23.3 h
- clearance ([11]; i.v. 5 mg·kg^−1, mean (SD)): 2.4 mL/min/kg
- Vd ([11]; i.v. 5 mg·kg^−1, mean (SD)): 3.8 L/kg
- bioavailability ([11]; i.v. 5 mg·kg^−1, p.o. 25 mg·kg^−1, mean (SD)): 2.3%

SMILES: CC[C@H]1OC(=O)[C@H](C)[C@@H](O)[C@H](C)[C@@H](O[C@@H]2O[C@H](C)C[C@H](N(C)C)[C@H]2OCCCNc2ccnc3ccccc23)[C@](C)(O)C[C@@H](C)CN[C@H](C)[C@@H](O)[C@]1(C)O [Compound 3]
- IC50 [5]: 20 nM
- IC50 [10]: 27 nM
- DNAUCPO ([11]; oral gavage 10 mg·kg^−1, mean (SD)): 36.2 (29) ng*h·ml^−1·mg^−1·kg^−1
- half-life ([11]; i.v. 2 mg·kg^−1 / p.o. 10 mg·kg^−1, mean (SD)): 18.8 h
- clearance ([11]; i.v. 2 mg·kg^−1, mean (SD)): 4 mL/min/kg
- Vd ([11]; i.v. 2 mg·kg^−1, mean (SD)): 6.3 L/kg
- bioavailability ([11]; i.v. 2 mg·kg^−1, p.o. 10 mg·kg^−1, mean (SD)): 1%

Reference: paper PMC9328652, “A novel class of fast‐acting antimalarial agents: Substituted 15‐membered azalides” (British Journal of Pharmacology, 2020)
